{"source": "paper PMC10023787", "about": "“Trio-pharmacophore DNA-encoded chemical library for simultaneous selection of fragments and linkers” (Nature Communications, 2023)", "key": {"bovine trypsin": {"target": "T1, bovine trypsin (Bos taurus, UniProt P00760)", "T1 construct": "purchased Sigma-Aldrich T8003", "T1 sequence (P00760 24-246)": "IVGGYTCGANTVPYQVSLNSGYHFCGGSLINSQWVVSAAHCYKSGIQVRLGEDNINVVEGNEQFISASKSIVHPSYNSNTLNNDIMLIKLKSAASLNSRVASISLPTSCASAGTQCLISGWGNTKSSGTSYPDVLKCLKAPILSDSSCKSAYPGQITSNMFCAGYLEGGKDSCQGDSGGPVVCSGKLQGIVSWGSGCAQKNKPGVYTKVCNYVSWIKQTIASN", "test": "Trypsin inhibition assay (proteolytic activity on BApNA)", "assay_type": "biochemical", "settings": "for remaining activity at 0.0001024 µM: Concentration 0.1024 nM; for remaining activity at 0.0001024 µM / remaining activity at 0.000512 µM / remaining activity at 0.00256 µM / remaining activity at 0.064 µM / remaining activity at 0.32 µM / remaining activity at 1.6 µM / remaining activity at 8 µM / remaining activity at 40 µM / remaining activity at 200 µM / remaining activity at 1000 µM: fraction of uninhibited activity, read-out: mean (Figure 3c, dose-response, relative trypsin activity); for remaining activity at 0.000512 µM: Concentration 0.512 nM; for remaining activity at 0.00256 µM: Concentration 2.56 nM; for remaining activity at 0.064 µM: Concentration 64 nM; for remaining activity at 0.32 µM: Concentration 320 nM; for remaining activity at 1.6 µM: Concentration 1600 nM; for remaining activity at 8 µM: Concentration 8000 nM; for remaining activity at 40 µM: Concentration 40000 nM; for remaining activity at 200 µM: Concentration 200000 nM; for remaining activity at 1000 µM: Concentration 1000000 nM", "procedure": "The inhibition by the benzamidine derivatives against trypsin was measured using an assay probing the enzyme proteolytic activity on the substrate Nα-Benzoyl-DL-arginine-4-nitroanilide hydrochloride (BApNA). […] 5 µl of BApNA solution (10 mM, dissolved in DMSO) were added immediately prior to the measurement. The final total volume was 100 µl per well. The measurements were performed in a Low Binding 384-well plate. The absorption was measured at 410 nm in intervals of 10 sec for 15 min at 37 °C using a Beckman Coulter’s Paradigm Detection Platform (Brea, USA). The measurements were performed in triplicate. The activity of trypsin was calculated by the hydrolysis rate of BApNA after subtraction of the background-hydrolysis rate. The curves were plotted as a function of the concentration of the inhibitor against the relative enzyme activity. Vmax was derived from the detected absorption signal for each concentration and logistic fitting was performed to obtain IC50 values using Origin 2019b (OriginLab)."}, "[1]": {"target": "T2, bovine carbonic anhydrase II (CAII) (Bos taurus, UniProt P00921)", "T2 construct": "purchased Sigma-Aldrich C7749", "T2 sequence (P00921 whole entry)": "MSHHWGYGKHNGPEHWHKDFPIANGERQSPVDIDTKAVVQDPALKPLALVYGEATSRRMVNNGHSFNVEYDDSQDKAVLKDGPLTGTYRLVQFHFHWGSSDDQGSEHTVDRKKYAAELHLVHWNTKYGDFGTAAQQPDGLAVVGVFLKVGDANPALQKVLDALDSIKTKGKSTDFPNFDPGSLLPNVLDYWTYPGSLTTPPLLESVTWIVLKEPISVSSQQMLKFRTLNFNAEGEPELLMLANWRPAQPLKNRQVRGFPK", "test": "Carbonic anhydrase II inhibition assay (esterase activity on p-nitrophenyl acetate)", "assay_type": "biochemical", "settings": "for remaining activity at 0.0001024 µM: 0.1024 nM compound; for remaining activity at 0.0001024 µM / remaining activity at 0.000512 µM / remaining activity at 0.00256 µM / remaining activity at 0.064 µM / remaining activity at 0.32 µM / remaining activity at 1.6 µM / remaining activity at 8 µM / remaining activity at 200 µM / remaining activity at 40 µM: source data of Fig. 2c, read-out: Normalized CA II Activity (Mean); for remaining activity at 0.000512 µM: 0.512 nM compound; for remaining activity at 0.00256 µM: 2.56 nM compound; for remaining activity at 0.064 µM: 64 nM compound; for remaining activity at 0.32 µM: 320 nM compound; for remaining activity at 1.6 µM: 1600 nM compound; for remaining activity at 8 µM: 8000 nM compound; for remaining activity at 200 µM: 200000 nM compound; for IC50: mean ± SE, three independent measurements, n.d: not detected; for remaining activity at 40 µM: 40000 nM compound", "procedure": "CAII inhibition assay was performed to measure the inhibitory effect of re-synthesized CBS-conjugates. The esterase activity of CAII with a chromogenic substrate p-nitrophenyl acetate (pNPA) was measured. The rates of hydrolysis were determined by an increase of absorption at 410 nm after incubating different compounds with CAII. Re-synthesized compounds were diluted in a serial spanning mM to μM concentrations. […] 5 µl of pNPA (50 mM in 20% DMSO) was added to the plate right before the measurement. The absorption was measured at 37 °C each 10 sec for 15 min using a Beckman Coulter’s Paradigm Detection Platform (Brea, USA). The initial Vmax was obtained from the increase of absorption and the Vmax was plotted against the inhibitor concentrations and logistic fitting was performed to obtain IC50 values using Origin 2019b (OriginLab) software."}}, "data": [{"smiles": "N=C(N)c1ccc(CN)cc1", "note": "[4-Aminomethyl benzamidine, 4-aminomethyl benzamidine, reference compound]", "values": [{"measurement": "remaining activity at 0.0001024 µM", "setting": "bovine trypsin", "value": 108, "unit": "%"}, {"measurement": "remaining activity at 0.000512 µM", "setting": "bovine trypsin", "value": 96.5, "unit": "%"}, {"measurement": "remaining activity at 0.00256 µM", "setting": "bovine trypsin", "value": 102, "unit": "%"}, {"measurement": "remaining activity at 0.064 µM", "setting": "bovine trypsin", "value": 110, "unit": "%"}, {"measurement": "remaining activity at 0.32 µM", "setting": "bovine trypsin", "value": 101, "unit": "%"}, {"measurement": "remaining activity at 1.6 µM", "setting": "bovine trypsin", "value": 106, "unit": "%"}, {"measurement": "remaining activity at 8 µM", "setting": "bovine trypsin", "value": 103, "unit": "%"}, {"measurement": "remaining activity at 40 µM", "setting": "bovine trypsin", "value": 82.5, "unit": "%"}, {"measurement": "remaining activity at 200 µM", "setting": "bovine trypsin", "value": 44.6, "unit": "%"}, {"measurement": "remaining activity at 1000 µM", "setting": "bovine trypsin", "value": 12.9, "unit": "%"}, {"measurement": "IC50", "setting": "bovine trypsin; mean ± SE, three independent measurements, n.d: not detected", "value": 147, "unit": "µM"}]}, {"smiles": "S=C=Nc1ccccc1I", "note": "[Compound B, 2-iodophenyl isothiocyanate, reference compound]", "values": [{"measurement": "remaining activity at 0.0001024 µM", "setting": "bovine trypsin", "value": 103, "unit": "%"}, {"measurement": "remaining activity at 0.000512 µM", "setting": "bovine trypsin", "value": 102, "unit": "%"}, {"measurement": "remaining activity at 0.00256 µM", "setting": "bovine trypsin", "value": 94.8, "unit": "%"}, {"measurement": "remaining activity at 0.064 µM", "setting": "bovine trypsin", "value": 107, "unit": "%"}, {"measurement": "remaining activity at 0.32 µM", "setting": "bovine trypsin", "value": 107, "unit": "%"}, {"measurement": "remaining activity at 1.6 µM", "setting": "bovine trypsin", "value": 100, "unit": "%"}, {"measurement": "remaining activity at 8 µM", "setting": "bovine trypsin", "value": 108, "unit": "%"}, {"measurement": "remaining activity at 40 µM", "setting": "bovine trypsin", "value": 105, "unit": "%"}, {"measurement": "remaining activity at 200 µM", "setting": "bovine trypsin", "value": 114, "unit": "%"}, {"measurement": "remaining activity at 1000 µM", "setting": "bovine trypsin", "value": 90.1, "unit": "%"}, {"measurement": "inhibitory effect", "setting": "bovine trypsin; in words", "value": "did not display any detectable inhibitory effect"}]}, {"smiles": "NS(=O)(=O)c1ccc(NC(=O)/C=C/c2ccc(-c3ccccc3C(F)(F)F)o2)cc1", "note": "[Compound C-0]", "values": [{"measurement": "remaining activity at 0.0001024 µM", "setting": "[1]", "value": 93.3, "unit": "%"}, {"measurement": "remaining activity at 0.000512 µM", "setting": "[1]", "value": 94, "unit": "%"}, {"measurement": "remaining activity at 0.00256 µM", "setting": "[1]", "value": 93.6, "unit": "%"}, {"measurement": "remaining activity at 0.064 µM", "setting": "[1]", "value": 84.9, "unit": "%"}, {"measurement": "remaining activity at 0.32 µM", "setting": "[1]", "value": 65.6, "unit": "%"}, {"measurement": "remaining activity at 1.6 µM", "setting": "[1]", "value": 45.7, "unit": "%"}, {"measurement": "remaining activity at 8 µM", "setting": "[1]", "value": 38.2, "unit": "%"}, {"measurement": "remaining activity at 200 µM", "setting": "[1]", "value": 20.9, "unit": "%"}, {"measurement": "IC50", "setting": "[1]", "value": 830, "unit": "nM"}]}, {"smiles": "NS(=O)(=O)c1ccc(NCc2ccc(C(=O)NCCNC(=O)/C=C/c3ccc(-c4ccccc4C(F)(F)F)o3)cc2)cc1", "note": "[Compound C-1]", "values": [{"measurement": "remaining activity at 0.0001024 µM", "setting": "[1]", "value": 93.8, "unit": "%"}, {"measurement": "remaining activity at 0.000512 µM", "setting": "[1]", "value": 93.6, "unit": "%"}, {"measurement": "remaining activity at 0.00256 µM", "setting": "[1]", "value": 90.4, "unit": "%"}, {"measurement": "remaining activity at 0.064 µM", "setting": "[1]", "value": 87.7, "unit": "%"}, {"measurement": "remaining activity at 0.32 µM", "setting": "[1]", "value": 71.8, "unit": "%"}, {"measurement": "remaining activity at 1.6 µM", "setting": "[1]", "value": 43, "unit": "%"}, {"measurement": "remaining activity at 8 µM", "setting": "[1]", "value": 19.9, "unit": "%"}, {"measurement": "remaining activity at 40 µM", "setting": "[1]", "value": 8.01, "unit": "%"}, {"measurement": "remaining activity at 200 µM", "setting": "[1]", "value": 2.91, "unit": "%"}, {"measurement": "IC50", "setting": "[1]", "value": "1290 ± 90", "unit": "nM"}]}, {"smiles": "NS(=O)(=O)c1ccc(NC(=O)COc2ccccc2OCC(=O)NCCNC(=O)/C=C/c2ccc(-c3ccccc3C(F)(F)F)o2)cc1", "note": "[Compound C-2]", "values": [{"measurement": "remaining activity at 0.0001024 µM", "setting": "[1]", "value": 91.3, "unit": "%"}, {"measurement": "remaining activity at 0.000512 µM", "setting": "[1]", "value": 93.6, "unit": "%"}, {"measurement": "remaining activity at 0.00256 µM", "setting": "[1]", "value": 96.1, "unit": "%"}, {"measurement": "remaining activity at 0.064 µM", "setting": "[1]", "value": 83, "unit": "%"}, {"measurement": "remaining activity at 0.32 µM", "setting": "[1]", "value": 61.4, "unit": "%"}, {"measurement": "remaining activity at 1.6 µM", "setting": "[1]", "value": 43.3, "unit": "%"}, {"measurement": "remaining activity at 8 µM", "setting": "[1]", "value": 25.6, "unit": "%"}, {"measurement": "remaining activity at 40 µM", "setting": "[1]", "value": 15, "unit": "%"}, {"measurement": "remaining activity at 200 µM", "setting": "[1]", "value": 14.3, "unit": "%"}, {"measurement": "improvement in the IC50 value", "setting": "[1]; compared with sulfanilamide", "value": 20, "unit": "fold"}, {"measurement": "IC50", "setting": "[1]", "value": 670, "unit": "nM"}]}]}
